# Results: patent publication US7279187B2, “Mineral fortification systems” (The Procter & Gamble Company, priority 2003, dated 2007)
# Assay: Colour development of iron source when added to water or other aqueous solutions
# Format: physicochemical
# Excerpt: Such a color can change the color appearance the food or beverage to which FERROCHEL has been added. In the case of many foods and beverages, this color change would be unacceptable.
structure (smiles),measurement,value
NCC(=O)[O-].NCC(=O)[O-].[Fe+2] [FERROCHEL],Colour imparted when added to water,imparts relatively quickly a deep rusty yellow color
